Test results published in patent US8852657B2, “Chromones as therapeutic agents” (Unigen, Inc., priority 2007, dated 2014).

System: high fat diet induced C57BL/6J mice
Experiment: Intraperitoneal glucose tolerance test, UP780 dose-range study
Type: in vivo, mouse
Conditions: week 3 of daily oral treatment; 30, 60 and 90 minutes; UP780 200 mg/kg, GW1929 5 mg/kg
Protocol: Once an induction of the disease on animals after 8 weeks of high fat diets was confirmed by monitoring of selected parameters, daily oral treatment was initiated. On each day, the test articles and the positive control GW1929 (Tocris Bioscience, Ellisville, Mo., Batch #2A/58705) were dissolved in 0.5% methylcellulose (Sigma, St. Louise Mo., Lot#116H0857) and delivered at an oral dose of 100, 200 and 400 mg/kg of UP780 (Lot # L1806QMAW-01); 400 mg/kg of Qmatrix® Aloe vera gel powder (QM400, Lot# G6319103-L3) as well as 5 mg/kg of GW1929. As GW1929 was not completely solublized in methylcellulose, it was first dissolved in DMSO (Sigma, St. Louis, Mo., Batch#064K0067). The final concentration of test compounds, including the vehicle, was then adjusted to contain 5% DMSO before drug administration. The carrier vehicle treated animals received 0.5% methylcellulose only. No detectable sign of irritation was observed after each drug or vehicle administration. […]
An intraperitoneal glucose tolerance test was conducted on day 0 (baseline), weeks 3, and 9 after onset of treatment. […] Blood glucose levels were determined at time 0 (before glucose injection), 30, 60, 90, and 120 minutes post glucose delivery. […] Blood glucose levels were determined at time 0 (before insulin injection), 30, 60, 90, and 120 minutes after insulin administration. […]

Compound: CN(CCOc1ccc(C[C@H](Nc2ccccc2C(=O)c2ccccc2)C(=O)O)cc1)c1ccccn1 [GW1929, N-(2-Benzoylphenyl)-O-[2-(methyl-2-pyridinylamino)ethyl]-L-tyrosine]
- glucose clearance in intraperitoneal glucose tolerance test vs vehicle: statistically significant glucose clearance
